Results taken from patent publication US12441689B2 (EpiVario, Inc., priority 2019, dated 2025).

Target: human ACSS2 protein (Homo sapiens (Human), UniProt Q9NR19)
Assay: ACSS2 Cell-Free Activity Assay (Cell-Free IC50)
Settings: 10 nM human ACSS2 protein, 90 minutes at 37 C, pyrophosphatase-coupled, Biomol Green absorbance at 620 nm; read-out: ACSS2 Biochemical IC50
Excerpt: ACSS2 Cell-Free Activity Assay (Cell-Free IC50)

Chain of human ACSS2 protein (Q9NR19 whole entry): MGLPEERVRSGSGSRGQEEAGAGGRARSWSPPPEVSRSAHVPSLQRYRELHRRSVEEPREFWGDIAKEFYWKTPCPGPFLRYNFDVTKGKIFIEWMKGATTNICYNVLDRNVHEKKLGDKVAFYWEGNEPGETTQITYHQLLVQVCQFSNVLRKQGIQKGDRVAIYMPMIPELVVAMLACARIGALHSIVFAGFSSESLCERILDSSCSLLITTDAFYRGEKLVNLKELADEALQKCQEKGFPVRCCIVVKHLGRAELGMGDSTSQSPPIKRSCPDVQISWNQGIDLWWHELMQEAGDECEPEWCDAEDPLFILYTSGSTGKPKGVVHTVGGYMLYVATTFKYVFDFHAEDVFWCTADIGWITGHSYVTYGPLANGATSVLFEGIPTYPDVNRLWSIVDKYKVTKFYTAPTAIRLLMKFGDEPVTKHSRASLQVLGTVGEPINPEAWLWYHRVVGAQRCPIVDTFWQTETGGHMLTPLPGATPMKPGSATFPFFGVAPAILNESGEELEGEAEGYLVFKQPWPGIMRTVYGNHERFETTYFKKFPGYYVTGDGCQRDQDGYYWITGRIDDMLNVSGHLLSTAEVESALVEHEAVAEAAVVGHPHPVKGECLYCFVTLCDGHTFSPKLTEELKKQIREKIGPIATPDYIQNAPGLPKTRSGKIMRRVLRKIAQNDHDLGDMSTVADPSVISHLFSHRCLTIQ

| IC50 [nM] | Compound |
| --- | --- |
| 1 to 100 | CCC(F)(F)c1cccc(NC(=O)c2c(C)[nH]c3ccc(OC)cc3c2=O)c1 [Compound 272, N-(3-(1,1-difluoropropyl)phenyl)-6-methoxy-2-methyl-4-oxo-1,4-dihydroquinoline-3-carboxamide] |
| 1 to 100 | CCC(F)(F)c1cccc(NC(=O)c2c(C)[nH]c3cc(OC)ccc3c2=O)c1 [Compound 273, N-(3-(1,1-difluoropropyl)phenyl)-7-methoxy-2-methyl-4-oxo-1,4-dihydroquinoline-3-carboxamide] |
| > 100 | CCC(F)(F)c1cccc(NC(=O)C2CCN(Cc3ccc(OC)cc3)C(c3ccc(OC)cc3)C2O)c1 (stereo not shown) [Compound 275, N-(3-(1,1-difluoropropyl)phenyl)-3-hydroxy-1-(4-methoxybenzyl)-2-(4-methoxyphenyl)piperidine-4-carboxamide] |

| Compound | IC50 [nM] |
| --- | --- |
| N-(3-(1,1-difluoroethyl)phenyl)-2-(6-(difluoromethoxy)-[1,1′-biphenyl]-3-yl)-4-methyloxazole-5-carboxamide [Compound 115] | > 100 |
